In ChEMBL document CHEMBL1126346, “C-linked pyrazole biaryl tetrazoles as antagonists of angiotensin II” (1992):
Activity calls are given as the source filed them. The calls are words filed in the database; no cut-off is given here.

Experiments:
[1] = target: T1, Type-1 angiotensin II receptor (Oryctolagus cuniculus) (UniProt P34976); assay: In vitro inhibition of ATII induced contractions of the isolated rabbit aorta.
T1 sequence (whole entry): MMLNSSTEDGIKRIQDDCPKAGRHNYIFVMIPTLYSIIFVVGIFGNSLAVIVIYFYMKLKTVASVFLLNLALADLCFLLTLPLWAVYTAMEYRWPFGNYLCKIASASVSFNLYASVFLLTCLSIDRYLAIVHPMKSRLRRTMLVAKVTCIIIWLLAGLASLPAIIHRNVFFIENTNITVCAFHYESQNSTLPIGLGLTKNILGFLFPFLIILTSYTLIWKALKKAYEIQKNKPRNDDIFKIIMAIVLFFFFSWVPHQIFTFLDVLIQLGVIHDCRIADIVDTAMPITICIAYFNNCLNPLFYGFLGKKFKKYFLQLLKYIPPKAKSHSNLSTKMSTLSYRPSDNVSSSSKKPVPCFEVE

Rattus norvegicus [2] = assay: Effect on diastolic blood pressure of hypertensive rats 1 hour following 1 mg/kg p.o. administration.; type: functional, Artery; details: route oral
Rattus norvegicus [3] = assay: Effect on diastolic blood pressure of hypertensive rats 3 hours following 1 mg/kg p.o. administration.; type: functional, Artery; details: route oral
Rattus norvegicus [4] = assay: Effect on diastolic blood pressure of hypertensive rats 24 hours following 1 mg/kg p.o. administration.; type: functional, Artery; details: route oral
Rattus norvegicus [5] = assay: Effect on diastolic blood pressure of hypertensive rats 48 hours following 1 mg/kg p.o. administration.; type: functional, Artery; details: route oral
Rattus norvegicus [6] = assay: Effect on diastolic blood pressure of hypertensive rats 5 hours following 1 mg/kg p.o. administration.; type: functional, Artery; details: route oral
Rattus norvegicus [7] = assay: Effect on diastolic blood pressure of hypertensive rats 7 hours following 1 mg/kg p.o. administration.; type: functional, Artery; details: route oral
Rattus norvegicus [8] = assay: Effect on diastolic blood pressure of hypertensive rats immediately following 1 mg/kg p.o. administration.; type: functional, Artery; details: route oral
Rattus norvegicus [9] = species: Rattus norvegicus; assay: Effect on diastolic blood pressure of hypertensive rats; Inactive; type: functional, organism-based; details: Artery

Structure (SMILES) | pKB [1] | further results
CCCCc1nn(C(C)C)c(C(=O)O)c1Cc1ccc(-c2ccccc2-c2nn[nH]n2)cc1 | 10 | 
CCCCc1nn(CC(F)(F)F)c(C(=O)O)c1Cc1ccc(-c2ccccc2-c2nn[nH]n2)cc1 | 9.8 | 
CCCCc1nn(CCCC)c(C(=O)O)c1Cc1ccc(-c2ccccc2-c2nn[nH]n2)cc1 | 10 | 
CCCCc1nn(CC(C)(C)C)c(C(=O)O)c1Cc1ccc(-c2ccccc2-c2nn[nH]n2)cc1 | 10.6 | 
CCCCc1nn(CC(C)C)c(C(=O)O)c1Cc1ccc(-c2ccccc2-c2nn[nH]n2)cc1 | 11 | 
CCCCc1nn(CCC)c(C(=O)O)c1Cc1ccc(-c2ccccc2-c2nn[nH]n2)cc1 | 10.5 | 
CCCCc1nn(CC)c(C(=O)O)c1Cc1ccc(-c2ccccc2NS(=O)(=O)C(F)(F)F)cc1 | 8 | 
CCCCc1nn(CC)c(C(=O)O)c1Cc1ccc(-c2ccccc2-c2nn[nH]n2)cc1 | 9.8 | 
CCCCc1c(Cc2ccc(-c3ccccc3-c3nn[nH]n3)cc2)c(C(=O)O)nn1CC(F)(F)F | 7.7 | 
CCCCc1nn(CC2CC2)c(C(=O)O)c1Cc1ccc(-c2ccccc2-c2nn[nH]n2)cc1 | 10.5 | Blood pressure (Rattus norvegicus [2]): 145 mmHg; Blood pressure (Rattus norvegicus [3]): 115 mmHg; Blood pressure (Rattus norvegicus [4]): 97 mmHg; Blood pressure (Rattus norvegicus [5]): 130 mmHg; Blood pressure (Rattus norvegicus [6]): 95 mmHg; Blood pressure (Rattus norvegicus [7]): 95 mmHg; Blood pressure (Rattus norvegicus [8]): 150 mmHg
CCCCc1nn(C2CCC2)c(C(=O)O)c1Cc1ccc(-c2ccccc2-c2nn[nH]n2)cc1 | 10.9 | Blood pressure (Rattus norvegicus [9]): inactive
CCCCc1n[nH]c(C(=O)O)c1Cc1ccc(-c2ccccc2-c2nn[nH]n2)cc1 | 8.8 | 
CCCCc1nn(CC)c(C(=O)O)c1Cc1ccc(-c2ccccc2C(=O)O)cc1 | 8 | 
CCCCc1nn(CC(F)(F)F)c(COC)c1Cc1ccc(-c2ccccc2-c2nn[nH]n2)cc1 | 7 | 
CCCCc1nn(CC)c(CO)c1Cc1ccc(-c2ccccc2-c2nn[nH]n2)cc1 | 8 | 
CCCCc1c(Cc2ccc(-c3ccccc3-c3nn[nH]n3)cc2)c(COC)nn1CC(F)(F)F | 7 | 
CCCCc1nn(CC)c(C(=O)NC)c1Cc1ccc(-c2ccccc2-c2nn[nH]n2)cc1 | 7.5 | 
CCCCc1c(Cc2ccc(-c3ccccc3-c3nn[nH]n3)cc2)c(C(=O)O)nn1CCCC | 8 | 
CCCCc1nn(C)c(C(=O)O)c1Cc1ccc(-c2ccccc2-c2nn[nH]n2)cc1 | 9.8 | 
CCCCc1nn(CC)c(C(=O)OCC)c1Cc1ccc(-c2ccccc2-c2nn[nH]n2)cc1 | 8 | 
CCCCc1c(Cc2ccc(-c3ccccc3-c3nn[nH]n3)cc2)c(C(=O)O)nn1C(C)C | 8 | 
